We go through two compounds from US8507010B2, “Compositions comprising quinazoline derivatives” (Shanghai Allist Pharmaceuticals, Inc., priority 2008, dated 2013).

What is called bioavailability is dose-corrected exposure relative to a reference, in per cent. Low readings indicate poor availability, high ones good availability. A word on the AUC(0-t): it is the area under the concentration-time curve up to a stated or last time point. The low end stands for less exposure, the high end for more exposure. As usually defined, the Cmax is the maximum level reached in the sampled fluid or tissue. A word on the half-life: it is the time needed for the level to fall by half in the phase considered. As usually defined, the Tmax is the time from dosing to the highest level.

For data set [1], the system named is human epidermoid squamous carcinoma cell A431. The settings on record: stated in CN 200610023526.7 / WO 2007/082434; cited from earlier work.
Data set [2] has the same test system. The settings on record: stated in CN 200610023526.7 / WO 2007/082434; cited from earlier work. The source holds these as a separate data set.
In data set [3] the test system is human breast cancer cell BT-474. The settings on record: stated in CN 200610023526.7 / WO 2007/082434; cited from earlier work.
Another data set deals with erbB-2 kinase (Homo sapiens, UniProt P04626). To be noted: stated in CN 200610023526.7 / WO 2007/082434; cited from earlier work.
erbB-2 kinase, sequence (P04626 23-1255): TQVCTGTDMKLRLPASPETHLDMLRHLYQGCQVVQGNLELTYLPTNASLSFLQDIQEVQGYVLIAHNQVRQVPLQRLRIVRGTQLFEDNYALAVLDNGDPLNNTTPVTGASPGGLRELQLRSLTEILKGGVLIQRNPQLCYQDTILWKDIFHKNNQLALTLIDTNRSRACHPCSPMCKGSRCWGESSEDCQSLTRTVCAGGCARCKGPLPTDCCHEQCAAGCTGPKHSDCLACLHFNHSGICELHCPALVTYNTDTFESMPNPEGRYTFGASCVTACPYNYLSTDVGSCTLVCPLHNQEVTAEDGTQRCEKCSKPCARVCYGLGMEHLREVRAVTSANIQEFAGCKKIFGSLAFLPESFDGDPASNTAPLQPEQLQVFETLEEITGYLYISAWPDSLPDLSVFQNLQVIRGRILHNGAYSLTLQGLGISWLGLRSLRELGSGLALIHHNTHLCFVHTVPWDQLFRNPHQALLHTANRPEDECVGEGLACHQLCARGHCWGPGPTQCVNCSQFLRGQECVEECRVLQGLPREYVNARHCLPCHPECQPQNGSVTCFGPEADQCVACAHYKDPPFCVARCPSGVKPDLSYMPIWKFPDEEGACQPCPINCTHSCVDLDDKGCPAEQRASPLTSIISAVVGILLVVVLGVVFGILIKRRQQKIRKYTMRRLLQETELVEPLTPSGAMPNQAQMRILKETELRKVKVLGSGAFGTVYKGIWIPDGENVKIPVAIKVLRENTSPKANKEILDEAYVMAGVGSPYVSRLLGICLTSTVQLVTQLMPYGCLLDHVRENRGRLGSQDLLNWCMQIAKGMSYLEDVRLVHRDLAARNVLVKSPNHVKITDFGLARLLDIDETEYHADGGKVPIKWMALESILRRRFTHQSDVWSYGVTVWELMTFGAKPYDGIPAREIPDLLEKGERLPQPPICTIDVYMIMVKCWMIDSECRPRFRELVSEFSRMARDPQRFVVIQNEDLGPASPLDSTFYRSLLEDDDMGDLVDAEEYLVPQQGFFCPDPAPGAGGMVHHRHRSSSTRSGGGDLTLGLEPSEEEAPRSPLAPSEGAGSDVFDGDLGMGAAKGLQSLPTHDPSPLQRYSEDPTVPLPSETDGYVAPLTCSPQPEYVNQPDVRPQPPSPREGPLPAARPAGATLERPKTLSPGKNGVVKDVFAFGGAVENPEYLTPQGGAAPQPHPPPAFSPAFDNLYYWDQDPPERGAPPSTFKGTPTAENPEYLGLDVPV
The next data set in a line: in vivo. The settings on record: male, SD, rat. The method, then: Intragastric administration (ig): 16 healthy SD rats (Shanghai Super-B&K Laboratory Animal Corp. Ltd., grade SPF), male, weighted 200-250 g, randomly divided into four groups, were each administered intragastrically with a drug: the compound prepared according to Example 1 (21.68 mg/kg), crystalline form A, crystalline form B, or crystalline form C (30 mg/kg) of p-toluenesulfonate of said compound. The blood samples were collected at 0.5 h, 1.0 h, 1.5 h, 2.0 h, 3.0 h, 5.0 h, 7.0 h, 9.0 h, 12 h, and 24 h after administration, which were then isolated to prepare the plasma. The concentrations of the drugs in the plasma were determined by means of liquid phase chromatography/tandem mass spectrometer (Agilent 1200LC/6410B), and the concentration-time curve was obtained.

In data set [4] the test system is human ovarian cancer SKOV-3. The experiment in a line: Tumor-inhibitory effect on human ovarian cancer SKOV-3 grafted to a BALB/cA nude mouse. To be noted: SKOV-3 grafted to BALB/cA nude mouse, high expression of erbB-2; listed as p-toluenesulfonate of N-{-4-[3-chloro-4-(3-fluoro-benzyloxy)phenylamino]quinazol, p-toluenesulfonate. The data set is classed as in vivo. The method, then:
A SKOV-3 tumor tissue in vigorous growth period was selected and incised into uniform pieces with the size of about 1.5 mm^3, which was grafted subcutaneously to the right armpit of a BALB/cA nude mouse (Shanghai Institute of Materia Medica, Chinese Academy of Sciences, grade SPF) with a trocar under sterile conditions. The diameters of the grafted tumors on the nude mouse were measured with a vernier caliper. The animals were grouped randomly when the tumors grew to a size of 80 to 100 mm^3. The tested animal groups were intragastrically administered through mouth as mentioned above once a day for 3 consecutive weeks. The positive control drug MMC (Mitomycin) was intravenously administered once on the first day with a dose of 5 mg/kg (0.9% sterile sodium chloride solution). The negative control group was administered with 0.5% CMC-Na (Carboxymethyl Cellulose-Sodium) with a dose of 0.2 mL/per mouse. The long axis (a) and the short axis (b) of the tumors were measured twice every week and the nude mice were weighed at the same time. According to the formula V=ab^2/2, the volume (mm^3) of the tumor could be calculated. Relative tumor volume (RTV) was calculated from the measurement result (according to the formula: RTV=Vt/V0, wherein V0 is the tumor volume measured upon the grouping time of administration, and Vt is the tumor volume measured each time). The relative tumor proliferation rate T/C(%) was chosen as the index of evaluation of anti-tumor activity, by the formula: T/C(%)=(TRTV/CRTV)×100 TRTV: RTV of the treated group; CRTV: RTV of the negative control group
(§1) Human epidermoid squamous carcinoma A431 grafted to BALB/cA nude mouse is an animal model having high expression of EGFR (erbB-1), and human ovarian cancer SKOV-3 grafted to BALB/cA nude mouse is an animal model having high expression of erbB-2.

In data set [5] the test system is human epidermoid squamous cancer cell A431. The experiment in a line: Tumor-inhibitory effect on human epidermoid squamous cancer cell A431 grafted to a BALB/cA nude mouse. The data set is classed as in vivo. The settings on record: A431 grafted to BALB/cA nude mouse, high expression of EGFR (erbB-1), p-toluenesulfonate. The method, then:
A well-developed solid tumor A431 was selected and incised into several uniform pieces with the size of 2-3 mm under sterile conditions, with one piece being grafted subcutaneously to the right armpit of each of the BALB/cA nude mice using a trocar. 7 days after the grafting, the mice were grouped randomly and were intragastrically administrated through mouth for 13 successive days. The long axis (a) and the short axis (b) of the tumors were measured with a vernier caliper every 4 days. According to the formula V=ab^2/2, the volume of the tumor (mm^3) could be calculated. The tested animals were neck-off killed 23 days after the grafting, and anatomized to obtain the tumors. The tumors were weighed, and the tumor inhibition rate was calculated.
as §1

Data set [6] in a line: Test on the drug absorption in SD rat, intravenous injection (iv). Type of data set: in vivo. To be noted: male, 5 mg/kg, plasma. The method, then:
Intravenous injection (iv): 4 healthy SD rats, male, weighted 200-250 g, were intravenously administered with p-toluenesulfonate of the compound of Example 1 (5 mg/kg). The blood samples were collected at 5 min, 15 min, 0.5 h, 1.5 h, 2.0 h, 3.0 h, 4.0 h, 5.0 h and 7.0 h after administration, which were then isolated to prepare the plasma. The concentrations of the drugs in the plasma were determined by means of liquid phase chromatography/tandem mass spectrometer and the concentration-time curve was obtained.

Molecules are shown by their SMILES.

As for `C=CC(=O)Nc1ccc2ncnc(Nc3ccc(OCc4cccc(F)c4)c(Cl)c3)c2c1` [The compound of Example 1, N-{4-[3-chloro-4-(3-fluoro-benzyloxy)phenylamino]quinazolin-6-yl}-acrylamide], the “inhibitory effect on growth of A431 cells (in words)” value in data set [1] is reported as “remarkable inhibitory effect”. Further, the “anti-tumor effect on A431 grafted to a nude mouse (in words)” value in data set [2] is given as “obvious anti-tumor effect”. In addition, in data set [3], the “inhibitory effect on growth of BT-474 cells (in words)” value is “remarkable inhibitory effect”. For the same compound, the “inhibitory activity against erbB-2 kinase (in words)” value on erbB-2 kinase is reported as “excellent inhibitory activity”. This compound gave a bioavailability in “in vivo” (absolute bioavailability) of 0.95%. The compound further registered an AUC(0-t) in the data set “in vivo” (po, 21.68 mg/kg, AUC0-t) of 106 ng·h/mL. In the data set “in vivo” (po, 21.68 mg/kg, Cmax), this compound yielded a Cmax of 32 ng/mL. This compound also gave a half-life in “in vivo” (po, 21.68 mg/kg, T1/2) of 1.81 h. Further, the time to peak (Tmax) in “in vivo” (po, 21.68 mg/kg, Tmax) worked out at 0.75 h.
As to `C=CC(=O)Nc1ccc2ncnc(Nc3ccc(OCc4cccc(F)c4)c(Cl)c3)c2c1.Cc1ccc(S(=O)(=O)O)cc1` [p-toluene sulfonate, N-{4-[3-chloro-4-(3-fluoro-benzyloxy)phenylamino]quinazolin-6-yl}-acrylamide p-toluenesulfonate], the “inhibitory effect on the tumor (in words)” value in data set [4] was “remarkable inhibitory effect on tumor growth”. In addition, the “inhibitory effect on the tumor (in words)” value in data set [5] (listed as p-toluenesulfonate of N-{-4-[3-chloro-4-(3-fluoro-benzyloxy)phenylamino]-quinazo) is on record as “significant inhibitory effect on the tumor”. For the same compound, the “inhibitory effect on the tumor (in words)” value in data set [5] (listed as p-toluenesulfonate of N-{-4-[3-chloro-4-(3-fluoro-benzyloxy)phenylamino]quinazol) is “remarkable inhibitory effect on tumor growth”. Moreover, in data set [6], the AUC(0-t) was 1860 ng·h/mL, the Cmax worked out at 1740 ng/mL, the Tmax worked out at 4.98 min and the half-life was 1.55 h.
